One compound from patent US10294202B2, “Pyrrolidinones as herbicides” (FMC Corporation, priority 2013, dated 2019) can be followed below.

For one assay, the system named is crabgrass, Brazil. The assay is described as follows: Test E preemergence herbicide test. Type of assay: in vivo, Digitaria horizontalis. More on the design: key: 0 = no effect, 100 = complete control. The gist of the method:
(§1)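 Visual injury rating, 0 (no effect) to 100 (complete control), versus controls at 21 days in greenhouse. Preemergence application to seeds planted in silt loam; compound formulated in non-phytotoxic solvent mix plus surfactant.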

The test system of a further assay is goosegrass. As to the kind of experiment: Test E preemergence herbicide test. Type of assay: in vivo, Eleusine indica. More on the design: key: 0 = no effect, 100 = complete control. The gist of the method:
as §1

The subject of the next assay is sandbur. The assay is described as follows: Test E preemergence herbicide test. In kind it is in vivo, Cenchrus echinatus. More on the design: key: 0 = no effect, 100 = complete control. The gist of the method: as §1
The next assay concerns beggarticks. As to the kind of experiment: Test E preemergence herbicide test. Type of assay: in vivo, Bidens pilosa. The arrangement: key: 0 = no effect, 100 = complete control. The source says: Seeds of plant species selected from corn (Zea mays), soybean (Glycine max), velvetleaf (Abutilon theophrasti), lambsquarters (Chenopodium album), wild poinsettia (Euphorbia heterophylla), pigweed, palmer (palmer pigweed, Amaranthus palmeri), waterhemp (common waterhemp, Amaranthus rudis), surinam grass (Brachiaria decumbens), crabgrass, large (large crabgrass, Digitaria sanguinalis), crabgrass, Brazil (Brazilian crabgrass, Digitaria horizontalis), panicum, fall (fall panicum, Panicum dichotomiflorum), foxtail, giant (giant foxtail, Setaria faberii), foxtail, green (green foxtail, Setaria viridis), goosegrass (Eleusine indica), johnsongrass (Sorghum halepense), ragweed (common ragweed, Ambrosia elatior), barnyardgrass (Echinochloa crus-galli), sandbur (southern sandbur, Cenchrus echinatus), arrowleaf […] rhombifolia), ryegrass, Italian (Italian ryegrass, Lolium multiflorum), dayflower, VA (Virginia dayflower, Commelina virginica), field bindweed (Convolvulus arvensis), morningglory (Ipomoea coccinea), nightshade (eastern black nightshade, Solanum ptycanthum), kochia (Kochia scoparia), nutsedge, yellow (yellow nutsedge, Cyperus esculentus), cocklebur (common cocklebur, Xanthium strumarium), smartweed (ladysthumb smartweed, Polygonum Persicaria) and beggarticks (hairy beggarticks, Bidens pilosa), were planted into a silt loam soil and treated preemergence with test chemicals formulated in a non-phytotoxic solvent mixture which included a surfactant. Treated plants and controls were maintained in a greenhouse for 21 days, after which time all species were compared to controls and visually evaluated. Plant response ratings, summarized in Table E, are based on a scale of 0 to 100 where 0 is no effect and 100 is complete control. A dash (-) response means no test result.

Another assay has as its system sprangletop, Brdd. As to the kind of experiment: Test F flood (paddy) test. Type of assay: in vivo, Leptochloa fascicularis. As to conditions: 21 d, scale 0-100. The gist of the method:
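Pots of sterilized Tama silt loam (35:50:15 sand:silt:clay, 2.6% organic matter) were sown so crop and weeds reached the 2.0–2.5-leaf stage; greenhouse 30/27 °C, 16-h photoperiod. Pots flooded to 3 cm, compound applied into paddy water, depth maintained. Visual rating vs untreated controls after 21 d, 0–100 scale.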

As for `O=C1NC[C@H](c2cccc(C(F)(F)F)c2)[C@H]1C(=O)Nc1cccc(F)c1F` [Compound 206], the “Plant response rating, Crabgrass, Brazil” value in the assay on crabgrass, Brazil (31 g ai/ha) turned out to be 80; in the assay with crabgrass, Brazil (62 g ai/ha), 98; with crabgrass, Brazil (125 g ai/ha), 98; in the assay with crabgrass, Brazil (250 g ai/ha), 98. Further, the “Plant response rating, Goosegrass” value is reported as 0 in the assay with goosegrass (31 g ai/ha), 0 in the assay with goosegrass (62 g ai/ha), 70 in the assay on goosegrass (125 g ai/ha) and 90 in the assay with goosegrass (250 g ai/ha). Further, the “Plant response rating, Sandbur” value came to 65 in the assay with sandbur (31 g ai/ha), 80 in the assay with sandbur (62 g ai/ha), 95 in the assay on sandbur (125 g ai/ha) and 98 in the assay on sandbur (250 g ai/ha). Further, the “Plant response rating, Beggarticks” value with beggarticks (31 g ai/ha), in the assay with beggarticks (62 g ai/ha), in the assay on beggarticks (125 g ai/ha) and in the assay with beggarticks (250 g ai/ha) was 0 each time. In addition, the “Plant response rating, Sprangletop, Brdd.” value with sprangletop, Brdd. (64 g ai/ha) is reported as 90; in the assay with sprangletop, Brdd. (125 g ai/ha) it was 95; in the assay with sprangletop, Brdd. (250 g ai/ha), 100; in the assay with sprangletop, Brdd. (500 g ai/ha), 100.
